The nature of series [1]: Comparison of state of dissolution in ethanol between crystals. It is filed as physicochemical. As to conditions: rank order between crystals. The protocol: The alcohol content of Crystal 4 obtained by changing the recrystallization condition of Example 1 was measured, and the state of dissolution in ethanol was also compared with those of Crystal of Comparative Example of Example 1 and Crystal 3 to compare the solubility.
The alcohol content of Crystal 5 obtained by changing the recrystallization condition of Example 1 was measured, and the state of dissolution in ethanol was also compared with those of Crystal of Comparative Example of Example 1 and Crystal 2 to compare the solubility.
The alcohol content of Crystal 6 obtained by changing the recrystallization condition of Example 1 was measured, and the state of dissolution in ethanol was also compared with those of Crystal of Comparative Example of Example 1, Crystal 4, and Crystal 3 to compare the solubility.
The alcohol content of Crystal 7 obtained by changing the recrystallization condition of Example 1 was measured, and the state of dissolution in ethanol was also compared with those of Crystal of Comparative Example of Example 1 and Crystal 5 to compare the solubility.

Series [2] in a line: Elution test: time required for dissolution in anhydrous ethanol (50 rpm). It is filed as physicochemical. As to conditions: 1 g sample in 500 mL anhydrous ethanol, room temperature, stirring 50 rpm. On the procedure: (§1) An elution test (stirring condition: 50 rpm) was performed for Raw Material 1 (Crystal of Comparative Example) and Crystal 1 of Example 1 to investigate the elution dynamics. After confirming the dissolution of all crystals, the Z isomer and the SE isomer, which were isomers produced in the solution, were analyzed and quantitatively measured by means of HPLC. In the elution test, 500 mL of anhydrous ethanol was used as the solvent, wherein 1 g of the sample was dissolved at room temperature while stirring, and the time, which was required for the dissolution, was simultaneously measured. Accordingly, it is understood that the time, which is required for the dissolution, is short for Crystal 1, and thus the production of the Z isomer and the SE isomer as the isomers is suppressed in the dissolving step.

A short description of series [3]: HPLC measurement of Z and SE isomers produced in the solution after dissolution. It is filed as physicochemical. As to conditions: in ethanol solution after dissolution of all crystals. On the procedure: as §1, with “step. The condition for HPLC was as follows. Column: CHIRALCEL OD-RH 4.6×150 mm, column temperature: 35° C., mobile phase: mixture solution of methanol/2% aqueous solution of potassium hexafluorophosphate (85:15, v/v), flow rate: 0.6 mL/min., detection: 295 nm).” for “step.”

A short description of series [4]: State of dissolution in ethanol observed with the naked eye. It is filed as physicochemical. On the procedure:
The alcohol contents of crystals (Crystals 2, 3) obtained by changing the recrystallization condition of Example 1 were measured, and the state of dissolution in ethanol was also observed with the naked eye. Crystal 2 and Crystal 3 are the crystals of the present invention, wherein the dissolution state was satisfactory as well.
The alcohol content (content of alcohol used in recrystallization) of compositions obtained by changing the recrystallization condition of Example 1 was measured, and the state of dissolution in ethanol was also observed with the naked eye.

Series [5] deals with Trichomonas vaginalis (clinically isolated strain). Nature of the series: Trichomonas vaginalis culture, cell count on hemocytometer. Type of series: cell-based. As to conditions: 5.08 mg crystal in Trichomonas medium F, culture 4 days at 37° C., start 3.93×10^5 cells/mL. The protocol: Effects of an active ingredient containing alcohol were examined by utilizing crystal 10. Crystal, which was obtained by performing recrystallization from a mixture solution of ethyl acetate and n-hexane and which contained no alcohol, was used as a comparative example (comparative crystal). Direct effects of luliconazole were investigated by utilizing Trichomonas vaginalis (clinically isolated strain). Samples were prepared such that 5.08 mg of comparative crystal was added in “Trichomonas medium F” (Fuji Pharma), 5.08 mg of crystal 10 was added in the medium, and 5 μL of water was added in the medium (control). […] of culture solution containing 3.93×10^5 cells/mL of Trichomonas vaginalis was added to each of the samples, followed by culturing for 4 days at 37° C. After that, cells of Trichomonas were counted on a hemocytometer. Between these three samples, significant difference was confirmed at a critical value of not more than 1%.

The nature of series [6]: Tablet hardness measurement (PTB311). Type of series: physicochemical. As to conditions: tablet 50% lactose / 50% luliconazole, tableting pressure 1 ton/cm^2, 9 mmφ, average of 6 tablets. The protocol: According to the formulation described in the following Table 6, tablet was prepared, and its hardness was measured. PTB311 (Pharma Test GmbH) was used as a measurement apparatus for hardness. Condition of tableting was performed at tableting pressure of 1 ton/cm^2 by utilizing 9 mmφ of a mortar and mallet. Comparative example was prepared by performing same procedures as described above by using comparative crystal. […] Accordingly, it is assumed that a tablet having high hardness can be obtained by utilizing the active ingredient containing alcohol since the active ingredient containing alcohol has strong affinity between the active ingredients.

“Also recorded” adds a separate entry of the source.

Turning to `N#C/C(=C1/SC[C@@H](c2ccc(Cl)cc2Cl)S1)n1ccnc1` [Crystal 5, luliconazole], in series [1], the “Solubility order (state of dissolution in ethanol compared)” value is reported as “Crystal of Comparative Example<<Crystal 2=Crystal 5; also recorded: Crystal of Comparative Example<<Crystal 5=Crystal 7”.
For `N#C/C(=C1/SC[C@@H](c2ccc(Cl)cc2Cl)S1)n1ccnc1` [Crystal 4, luliconazole], the “Solubility order (state of dissolution in ethanol compared)” value in series [1] is listed as “Crystal of Comparative Example<<Crystal 4=Crystal 6<Crystal 3”.
Turning to `N#C/C(=C1/SC[C@@H](c2ccc(Cl)cc2Cl)S1)n1ccnc1` [Crystal 1, luliconazole], the “Time required until dissolution” value in series [2] amounted to 200 min. Besides, in series [3], the “Amount of generation of SE isomer” value is on record as 0.06% and the “Amount of generation of Z isomer” value amounted to 0.06%.
For the compound `N#C/C(=C1/SC[C@@H](c2ccc(Cl)cc2Cl)S1)n1ccnc1` [Crystal 7, luliconazole], the “Solubility order (state of dissolution in ethanol compared)” value in series [1] is reported as “Crystal of Comparative Example<<Crystal 5=Crystal 7”.
Take `N#C/C(=C1/SC[C@@H](c2ccc(Cl)cc2Cl)S1)n1ccnc1` [Crystal 3, luliconazole]: the “Solubility (state of dissolution in ethanol)” value in series [4] is “satisfactory”. Further, the “Solubility order (state of dissolution in ethanol compared)” value in series [1] was “Crystal of Comparative Example<<Crystal 4=Crystal 6<Crystal 3”.
Regarding `N#C/C(=C1/SC[C@@H](c2ccc(Cl)cc2Cl)S1)n1ccnc1` [Crystal of Comp. Ex., luliconazole, reference compound], the “Time required until dissolution” value in series [2] is 300 min. Further, in series [3], the “Amount of generation of SE isomer” value was 0.09% and the “Amount of generation of Z isomer” value was determined as 0.13%. The “Solubility order (state of dissolution in ethanol compared)” value in series [1] (listed as Comparative Example) is given as “Comparative Example<<Crystal 4<Crystal 3”. Besides, in series [1] (listed as Crystal of Comparative Example), the “Solubility order (state of dissolution in ethanol compared)” value is listed as “Crystal of Comparative Example<<Crystal 2=Crystal 5; also recorded: Crystal of Comparative Example<<Crystal 4=Crystal 6<Crystal 3; also recorded: Crystal of Comparative Example<<Crystal 5=Crystal 7”. In addition, the “Cells of Trichomonas counted, Average” value in series [5] (listed as Comparative crystal) was found to be 376000. Further, the Hardness in series [6] (listed as Comparative crystal) amounted to 29.1 ± 3.0 N.
As to `N#C/C(=C1/SC[C@@H](c2ccc(Cl)cc2Cl)S1)n1ccnc1` [Crystal 10, luliconazole], the “Solubility (state of dissolution in ethanol)” value in series [4] is on record as “satisfactory”. The “Cells of Trichomonas counted, Average” value in series [5] was 256000. The same compound yielded a Hardness in series [6] of 73.7 ± 4.2 N.
In the case of `N#C/C(=C1/SC[C@@H](c2ccc(Cl)cc2Cl)S1)n1ccnc1` [Crystal 2, luliconazole], the “Solubility (state of dissolution in ethanol)” value in series [4] is “satisfactory”. In addition, in series [1], the “Solubility order (state of dissolution in ethanol compared)” value is “Crystal of Comparative Example<<Crystal 2=Crystal 5”.
Regarding `N#C/C(=C1/SC[C@@H](c2ccc(Cl)cc2Cl)S1)n1ccnc1` [Crystal 6, luliconazole], in series [1], the “Solubility order (state of dissolution in ethanol compared)” value is given as “Crystal of Comparative Example<<Crystal 4=Crystal 6<Crystal 3”.

(Values after patent publication US9012484B2, “Crystal and pharmaceutical preparation containing the same crystal” (Pola Pharma Inc., priority 2012, dated 2015).)
